Experimental data from patent US20090012045A1, “Methods of Treating Cell Proliferative Disorders” (RIGEL PHARMACEUTICALS, INC., priority 2007, published 2009).

Legend:
OVCAR-3 = OVCAR-3 (Ovarian Cancer)
SK-MEL-5 = SK-MEL-5 (Melanoma)
IGROV1 = IGROV1 (Ovarian Cancer)
M14 = M14 (Melanoma)
HCT-15 = HCT-15 (Colon Cancer)
DU-145 = DU-145 (Prostate Cancer)
SNB-75 = SNB-75 (CNS Cancer)
CAKI-1 = CAKI-1 (Renal Cancer)
HCC-2998 = HCC-2998 (Colon Cancer)
NCI-H23 = NCI-H23 (Non-Small Cell Lung Cancer)
HOP-62 = HOP-62 (Non-Small Cell Lung Cancer)
T-47D = T-47D (Breast Cancer)
CCRF-CEM = CCRF-CEM (Leukemia)
ACHN = ACHN (Renal Cancer)
SR = SR (Leukemia)
K-562 = K-562 (Leukemia)
TK-10 = TK-10 (Renal Cancer)
COLO 205 = COLO 205 (Colon Cancer)
OVCAR-5 = OVCAR-5 (Ovarian Cancer)
MCF7 = MCF7 (Breast Cancer)
HOP-92 = HOP-92 (Non-Small Cell Lung Cancer)
SK-OV-3 = SK-OV-3 (Ovarian Cancer)
MALME-3M = MALME-3M (Melanoma)
SF-268 = SF-268 (CNS Cancer)
MDA-MB-231/ATCC = MDA-MB-231/ATCC (Breast Cancer)
SN12C = SN12C (Renal Cancer)
786-0 = 786-0 (Renal Cancer)
A549/ATCC = A549/ATCC (Non-Small Cell Lung Cancer)
HT29 = HT29 (Colon Cancer)
MDA-MB-435 = MDA-MB-435 (Breast Cancer)
OVCAR-8 = OVCAR-8 (Ovarian Cancer)

Structure (SMILES): COc1cc(Nc2ncc(F)c(Nc3ccc4c(n3)NC(=O)C(C)(C)O4)n2)cc(OC)c1OC.O=S(=O)(O)c1ccccc1 [Compound 1 (besylate salt), N4-(2,2-Dimethyl-3-oxo-4H-5-pyrid[1,4]oxazin-6-yl)-5-fluoro-N2-(3,4,5-trimethoxyphenyl)-2,4-pyrimidinediamine Benzenesulfonic Acid Salt]
- GI50 (OVCAR-3): > 100 µM
- TGI (OVCAR-3): >1.00E−4
- CC50 (OVCAR-3; read-out: LC50): > 100 µM
- GI50 (SK-MEL-5): > 100 µM
- TGI (SK-MEL-5): >1.00E−4
- CC50 (SK-MEL-5; read-out: LC50): > 100 µM
- GI50 (IGROV1): 0.796 µM
- TGI (IGROV1): >1.00E−4
- CC50 (IGROV1; read-out: LC50): > 100 µM
- GI50 (M14): > 100 µM
- TGI (M14): >1.00E−4
- CC50 (M14; read-out: LC50): > 100 µM
- TGI (HCT-15): >1.00E−4
- CC50 (HCT-15; read-out: LC50): > 100 µM
- TGI (DU-145): >1.00E−4
- CC50 (DU-145; read-out: LC50): > 100 µM
- GI50 (SNB-75): 0.871 µM
- TGI (SNB-75): >1.00E−4
- CC50 (SNB-75; read-out: LC50): > 100 µM
- GI50 (CAKI-1): 0.0515 µM
- TGI (CAKI-1): 2.44E−6
- CC50 (CAKI-1; read-out: LC50): > 100 µM
- GI50 (HCC-2998): > 100 µM
- TGI (HCC-2998): >1.00E−4
- CC50 (HCC-2998; read-out: LC50): > 100 µM
- TGI (NCI-H23): >1.00E−4
- CC50 (NCI-H23; read-out: LC50): > 100 µM
- GI50 (HOP-62): 0.537 µM
- TGI (HOP-62): >1.00E−4
- CC50 (HOP-62; read-out: LC50): > 100 µM
- TGI (T-47D): >1.00E−4
- CC50 (T-47D; read-out: LC50): > 100 µM
- TGI (CCRF-CEM): >1.00E−4
- CC50 (CCRF-CEM; read-out: LC50): > 100 µM
- GI50 (ACHN): 1.24 µM
- TGI (ACHN): >1.00E−4
- CC50 (ACHN; read-out: LC50): > 100 µM
- GI50 (SR): 3.56 µM
- TGI (SR): >1.00E−4
- CC50 (SR; read-out: LC50): > 100 µM
- GI50 (K-562): > 100 µM
- TGI (K-562): >1.00E−4
- CC50 (K-562; read-out: LC50): > 100 µM
- TGI (TK-10): >1.00E−4
- CC50 (TK-10; read-out: LC50): > 100 µM
- GI50 (COLO 205): 7.26 µM
- TGI (COLO 205): >1.00E−4
- CC50 (COLO 205; read-out: LC50): > 100 µM
- GI50 (OVCAR-5): > 100 µM
- TGI (OVCAR-5): >1.00E−4
- CC50 (OVCAR-5; read-out: LC50): > 100 µM
- GI50 (MCF7): 2.72 µM
- TGI (MCF7): >1.00E−4
- CC50 (MCF7; read-out: LC50): > 100 µM
- GI50 (HOP-92): 0.41 µM
- CC50 (HOP-92; read-out: LC50): > 100 µM
- GI50 (SK-OV-3): 0.429 µM
- TGI (SK-OV-3): >1.00E−4
- CC50 (SK-OV-3; read-out: LC50): > 100 µM
- GI50 (MALME-3M): > 100 µM
- TGI (MALME-3M): >1.00E−4
- CC50 (MALME-3M; read-out: LC50): > 100 µM
- GI50 (SF-268): 1.7 µM
- TGI (SF-268): >1.00E−4
- CC50 (SF-268; read-out: LC50): > 100 µM
- TGI (MDA-MB-231/ATCC): >1.00E−4
- CC50 (MDA-MB-231/ATCC; read-out: LC50): > 100 µM
- GI50 (SN12C): 0.698 µM
- TGI (SN12C): >1.00E−4
- CC50 (SN12C; read-out: LC50): > 100 µM
- GI50 (786-0): 0.873 µM
- TGI (786-0): >1.00E−4
- CC50 (786-0; read-out: LC50): > 100 µM
- TGI (A549/ATCC): >1.00E−4
- CC50 (A549/ATCC; read-out: LC50): > 100 µM
- GI50 (HT29): 2.19 µM
- TGI (HT29): >1.00E−4
- CC50 (HT29; read-out: LC50): > 100 µM
- GI50 (MDA-MB-435): 3.62 µM
- TGI (MDA-MB-435): >1.00E−4
- CC50 (MDA-MB-435; read-out: LC50): > 100 µM
- GI50 (OVCAR-8): > 100 µM
- TGI (OVCAR-8): >1.00E−4
- CC50 (OVCAR-8; read-out: LC50): > 100 µM
